{"source": "patent US9758502B2", "about": "“Dihydropyrone compounds and herbicides comprising the same” (SUMITOMO CHEMICAL COMPANY, LIMITED, priority 2012, dated 2017)", "tested_on": "Echinochloa crus-galli", "test": "Test 1-1 Post-emergence Treatment Test", "assay_type": "in vivo", "settings": "sprayed on whole plants at 1-2 leaf stages, treatment amount 1,000 g/10,000 m^2, after 20 days of the treatment, greenhouse", "procedure": "Here an efficacy for controlling weeds on the present compound was visually observed and evaluated in 11 criteria of 0 to 10 (0 represents no action, 10 represents complete death and the intermediate efficacy were evaluated in 1 to 9 criteria).\nCommercial soil for propagation was put in a pot measuring 8 cm in diameter and 6.5 cm in height, and in the pot, seeds of Echinochloa crus-galli were sown, and then covered with soil of about 0.5 cm thickness and the plants were grown in a greenhouse. When the plants were grown to 1-2 leaf stages, a predetermined amount of a chemical diluted solution containing a compound (1-1) was uniformly spayed on the whole plants. Here the chemical diluted solution was prepared by dissolving a predetermined amount of the compound (1-1) in dimethylformamide solution containing 2% of Tween 20 (polyoxyetylene sorbitan fatty acid ester) (manufactured by MP Biomedicals Inc.) and then diluting the solution with deionized water. After spraying, plants were grown in a greenhouse and after 20 days of the treatment, the efficacy for Echinochloa crus-galli was observed and the controlling effect was evaluated.\nSimilarly, the present compounds (1-2) to (1-11) and (1-13) were also tested."}
{"smiles": "CCc1cc(C)cc(CC)c1C1=C(O)CC(C(C)CS(=O)(=O)c2ccc(C(F)(F)F)cn2)OC1=O", "note": "(stereo not shown) [(1-13)]", "values": [{"measurement": "efficacy for controlling weeds (visually observed, 11 criteria of 0 to 10)", "value": "≥ 9"}]}
